Source: patent US20250195460A1, “MEDIUM CHAIN TRIGLYCERIDE AND SHORT CHAIN FATTY ACID COMPOSITIONS & METHODS OF USE THEREOF” (priority 2023, published 2025)

Test system: HepG2 cells
Assay: Ketogenic activity in HepG2 cells (ketone levels in cell supernatants)
Type: cell-based
Conditions: each component 2.4 mM, glucose-free media, up to 135 minutes, FIG. 1
Procedure: In this Example, the ketogenic activities of various compositions were tested in HepG2 cells. More particularly, the ketogenic activity of butyric acid (2.4 mM) (“BA”) alone; beta-hydroxybutyrate (2.4 mM) (“BHB”) alone; caprylic acid (2.4 mM) (“CA”) alone; caprylic acid (2.4 mM) combined with butyric acid (2.4 mM); and a combination of caprylic acid (2.4 mM), butyric acid (2.4 mM), and beta-hydroxybutyrate (2.4 mM) were all tested in HepG2 cells. Each compound (or combination of compounds) was added to a solvent containing glucose-free media that included 10% fetal bovine serum (FBX), 1 mM sodium pyruvate, and 1 mM glutamine.
Each test composition was administered to HepG2 cells in a cell culture plate. Each composition was tested with three replicates. Ketone levels in the HepG2 cell supernatants were measured at the time of administration (time=0) and every 45 minutes thereafter, up to 135 minutes. The results are presented as the difference between the ketone concentration that was measured at each time point (i.e., measured every 45 minutes) and the ketone concentration that was measured at time=0 for each test composition, such that any positive measurement indicates an increase in ketone levels from the baseline time=0 measurement.

SMILES	induction of ketogenesis (generation of ketones)
CCCCCCCC(=O)O [caprylic acid, caprylic acid (octanoic acid)]	neither butyric acid alone, nor caprylic acid alone, was shown to induce ketogenesis
CCCC(=O)O [butyric acid]	neither butyric acid alone, nor caprylic acid alone, was shown to induce ketogenesis
